Source: patent publication US6638938B1, “Method for preventing tissue injury from hypoxia” (Cell Therapeutics, Inc., priority 1993, dated 2003)

Tests used:
neutrophils in BAL = assay: percentage of neutrophils among BAL samples; type: in vivo, Balb/C mice; settings: hemorrhage/resuscitated mice treated; 11±2% in untreated; p<0.05
Description: This example illustrates a study of Lisofylline in a murine hemorrhage and resuscitation model. Male Balb/C mice, 8-12 weeks of age, were obtained from Harlan-Sprague Dawley (Indianapolis, Ind.). The animals were kept on a 12 hour light/dark cycle with free access to food and water. With this model, 30% of the calculated blood volume (approximately 0.55 ml for a 20 gram mouse) was withdrawn from a methoxyflurane anesthetized mouse by cardiac puncture over a 60-second period. The blood was collected into a heparinized syringe (5 units heparin), kept at 37° C. for one hour, then reinfused into the mouse through a retroorbital plexus injection. Using this method, one is able to resuscitate all hemorrhaged mice without complication. […]
Three days following hemorrhage and resuscitation or the initiation of treatment with Lisofylline therapy in normal treated animals, mice were anesthetized with methoxyflurane and sacrificed by exsanguination through cardiac puncture into a heparinized (5 U) syringe. […] As determined by cytology, there was less than 3% contamination of alveolar macrophages with lymphocytes, neutrophils, or other mononuclear cell populations when BAL specimens are collected in normal Balb/C mice, but approximately 11±2% of isolated cells are neutrophils in mice subjected 3 days previously to 30% blood volume hemorrhage with resuscitation one hour later. […]

isolated rat kidneys = assay: ischemic isolated rat kidney reperfused with human neutrophils; settings: Ischemia + neutrophils + Lisofylline
Text: This example illustrates an in vivo kidney model of hypoxic tissue injury using Lisofylline. Isolated rat kidneys were rendered ischemic and reperfused with human neutrophils (prepared as in example 4 above) according to the procedure in Linas et al;, Am. J. Physiol. 24:728-735, 1988. Lisofylline decreased injury in this ischemic isolated rat kidney model according to the data presented in Table 8 below wherein GFR refers to glomerular filtration rate and TNa refers to tubular sodium reabsorption.

isolated rat lungs = assay: human neutrophil perfused isolated rat lungs given IL-8 intratracheally
Description: After Sprague-Dawley adult male rats (350±50 g) were anesthetized with pentobarbital (60 mg/kg i.p.), a tracheotomy cannula was placed and secured with 2-O ligature. Lungs were ventilated with a tidal volume of 3 cc at a rate of 60/min. with a gas mixture containing 5% CO2 21% O2 and 74% N2. Following midline thoracotomy, a 4-O ligature was loosely placed around the root of the pulmonary outflow tract. Heparin (200 units) was injected into the right ventricle and allowed to recirculate. A rigid cannula was placed into the right ventricle, threaded into the pulmonary outflow tract, and secured with the ligature. The left ventricle was incised and a drainage cannula was inserted and secured with a 2-O ligature. Lungs and heart were excised, placed in an isolated lung chamber, and ventilated with 2.5 cm of positive end-expiratory pressure. Lungs were perfused free of blood using Earle's Balanced Salt Solution (Sigma) containing calcium chloride (0.265 g/L), magnesium sulfate (0.09767 g/L), potassium chloride (0.4 g/L), sodium chloride (6.8 g/L), sodium phosphate monobasic (0. 122 g/L) and D-glucose (1 g/L) to which was added sodium bicarbonate (2.2 g/L.) and Ficoll-70 (Sigma)(40 g/L), and the final pH adjusted to 7.40. […] Pulmonary artery pressures were continuously monitored with a transducer and weight increases were monitored with a force transducer. […]

[1] = serum level of Lisofylline in hemorrhaged mice; type: in vivo; settings: male, mouse, intravenous, hemorrhaged Balb/C mice, 5 minutes after 100 mg/kg Lisofylline given with resuscitation blood, read-out: serum levels of Lisofylline
Description: This example illustrates a study of Lisofylline in a murine hemorrhage and resuscitation model. Male Balb/C mice, 8-12 weeks of age, were obtained from Harlan-Sprague Dawley (Indianapolis, Ind.). The animals were kept on a 12 hour light/dark cycle with free access to food and water. With this model, 30% of the calculated blood volume (approximately 0.55 ml for a 20 gram mouse) was withdrawn from a methoxyflurane anesthetized mouse by cardiac puncture over a 60-second period. The blood was collected into a heparinized syringe (5 units heparin), kept at 37° C. for one hour, then reinfused into the mouse through a retroorbital plexus injection. Using this method, one is able to resuscitate all hemorrhaged mice without complication. The total period of methoxyflurane anesthesia is less than 2 minutes in all cases. The mortality rate with this hemorrhage protocol is approximately 12%, with all deaths occurring over the 24 hours post hemorrhage, and most deaths occurring within the one hour post hemorrhage.
Mice were treated with 100 mg/kg Lisofylline in 0.2 ml PBS and given initially i.v., by retroorbital injection, then i.p. every 8 hours for a total of 9 doses. In hemorrhaged mice, the Lisofylline in PBS was added to the shed blood, and then given retroorbitally with the blood during the resuscitation phase. […]

[2] = tested on: neutrophils in lung lavages; assay: lung lavage neutrophils of intact rats given IL-1 intratracheally; type: in vivo, Sprague-Dawley rats
Description: Interleukin-1α (IL-1) and Lisofylline administration in Male Sprague-Dawley rats weighing 300-350 g (Sasco, Omaha, Neb.) were fed a normal diet and acclimated to altitude (Denver, Colo.) for at least 14 days before study. Rats were anesthetized with ketamine (90 mg/kg) and zylazine (7 mg/kg) intraperitoneally and then supplemented as needed with ketamine and zylazine and kept on a warming blanket. The trachea was cannulated with an indwelling 15 gauge stub adaptor tube. After 5 ventilated breaths (Harvard Apparatus Co., Millis, Mass.), IL-1 (0.5 ml, 50 ng) in sterile, endotoxin-free saline, was rapidly instilled intratracheally with a syringe, followed by another 5 ventilated breaths. Sham treated rats received identical anesthesia and surgery but were injected only with sterile saline intratracheally. […]
Saline (3.0 ml×2) was slowly injected intratracheally and then withdrawn. Recovered lavage fluid was quantitated and centrifuged for 5 min and the cell pellet resuspended in 1.0 ml of lavage. Total cells were counted in a hemocytometer and a cytospin preparation (Shandon Southern Products Ltd, Cheshire, England) Wright-stained and examined to determine the percentages of neutrophils.

C[C@@H](O)CCCCn1c(=O)c2c(ncn2C)n(C)c1=O [Lisofylline, 1-R-(5-hydroxyhexyl)-3,7-dimethylxanthine]
percentage of neutrophils among BAL samples (neutrophils in BAL): 6±2% | TNa (tubular sodium reabsorption) (isolated rat kidneys; control 90%, ischemia + neutrophils 40%): 78% (n = 6) | GFR (glomerular filtration rate) (isolated rat kidneys; control 250, ischemia + neutrophils 113): 202 (n = 6) | Lung Weight Gain (isolated rat lungs; Neutrophils + IL-8 + Lisofylline 1 μM): 0.0 ± 0.0 (3)δ g | Lung Weight Gain (isolated rat lungs; Neutrophils + IL-8 + Lisofylline 50 μM): 0.0 ± 0.0 (4)δ g | concentration at 5 min [1]: 44000 ± 6000 ng/mL | Total Lavage PMNs ([2]; IL-1 + Lisofylline (100 μg/kg)): 3.64 ± 0.84 (9)δ number × 10^6 | Total Lavage PMNs ([2]; Sham + Lisofylline (100 μg/kg)): 0.42 ± 0.14 (8)δ number × 10^6
